Test [1] has as its target human serum albumin (HSA) (Homo sapiens, UniProt P02768). The experiment in a line: Isothermal scanning calorimetry (ITC) of ligand association with HSA. The format is binding. Conditions: for Kd: ligand 400 μM injected into HSA 10 μM, PBS pH 7.4, 23° C., read-out: Association-constant to HSA K (Ka) (converted).
Procedure: The data was obtained for 15 automatic injections each of 2.7 The total duration of the experiments was 45 min (2A). […] Sample cell contained HSA at a concentration of 10 μM. Both components were dissolved in PBS-buffer pH=7.4. The experiment was conducted at 23° C.
(iv) Isothermal scanning calorimetry measurements were performed with iTC200 microcalorimeter (MicroCal LLC, Nothampton Mass., USA), according to the manufacturer's instructions.
Test [2] has as its system E. Coli. As to conditions: previously disclosed (Shechter et al., 2002; Marcus et al., 2008); read-out: IC50, inhibition of E. Coli replication; cited from earlier work.
In test [3] the target is HSA (Homo sapiens, UniProt P02768). Conditions: immobilized HSA binding strategy, Markusen et al., 1996; cited from earlier work.
HSA, sequence (P02768 25-609): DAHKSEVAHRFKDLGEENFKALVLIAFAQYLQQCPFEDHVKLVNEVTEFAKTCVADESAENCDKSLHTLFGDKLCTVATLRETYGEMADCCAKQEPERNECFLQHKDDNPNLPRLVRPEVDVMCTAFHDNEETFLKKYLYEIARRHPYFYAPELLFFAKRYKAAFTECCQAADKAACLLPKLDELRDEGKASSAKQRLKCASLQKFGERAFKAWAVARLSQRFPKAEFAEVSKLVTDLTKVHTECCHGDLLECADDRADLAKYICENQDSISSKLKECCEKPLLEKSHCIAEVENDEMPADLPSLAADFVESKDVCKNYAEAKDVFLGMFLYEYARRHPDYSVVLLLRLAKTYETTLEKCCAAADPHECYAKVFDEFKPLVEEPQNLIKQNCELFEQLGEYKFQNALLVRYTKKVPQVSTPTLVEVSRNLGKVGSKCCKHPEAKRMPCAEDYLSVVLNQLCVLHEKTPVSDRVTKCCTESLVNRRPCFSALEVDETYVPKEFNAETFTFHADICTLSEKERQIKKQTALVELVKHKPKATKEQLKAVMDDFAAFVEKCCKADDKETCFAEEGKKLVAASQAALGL
The conditions of test [4]: background statement; cited from earlier work.
Test [5] concerns CD1-mice. Conditions: at any dosage, previously described; cited from earlier work.

human serum albumin (HSA), sequence (P02768 25-609): as above

Take `O=C(O)CCCCCCCCCCSC1CC(=O)NC1=O` (stereo not shown): in test [1], the Kd was 7.69 µM.

For the compound `O=C(O)CNC(=O)OCC1c2cc(NC(=O)CCN3C(=O)C=CC3=O)ccc2-c2ccc(S(=O)(=O)O)cc21` (stereo not shown) [Glycine-FMS-MAL, 2-(((2-(3-(2,5-dioxo-2,5-dihydro-1H-pyrrol-1-yl)propanamido)-7-sulfo-9H-fluoren-9-yl)methoxy)carbonylamino)acetic acid], in test [1], the Kd is 7.14 µM.

Turning to `O=C(O)CCCCCCCCCCCCCCCSC1CC(=O)NC1=O` (stereo not shown) [MAL-S—(CH2)15—COOH, 16-(2,5-dioxopyrrolidin-3-ylthio)hexadecanoic acid], the Kd in test [1] is 6.45 µM.

For Gentamicin, the IC50 in test [2] is 2.1 ± 0.2 µM.

With “N^εB29-tetradecanoyl des(B30) insulin [insulin-detemir]”, the “Ka, binding affinity to HSA” value in test [3] is 2.4±0.7×10^5 M^−1. The duration of action entry in test [4] is given as “up to 24 hours”. Besides, in test [1] (PBS pH 7.4), the “N (binding sites, OneSites model)” value was found to be 0.693±0.0430 sites; the “ΔH of binding to HSA” value was -4.575 ± 0.4067 kcal/mol; the “ΔS of binding to HSA” value is reported as 6.79 (cal/mol)/deg.

For exendin-4, the “threshold decrease of circulating blood glucose level” value in test [5] is 27±3%.

(Values after patent publication US20120134977A1 (YEDA RESEARCH AND DEVELOPMENT CO. LTD., priority 2009, published 2012).)
